# Measurements from ChEMBL document CHEMBL3301546, “MMV Malaria Box yeast growth screening”.
# Experiments:
# Assay type in all cases: functional
# Saccharomyces cerevisiae [1] = assay: (§1) MMV: Growth assays were conducted using the prototrophic S. cerevisiae strain JHY222. Each MMV compound (0.1 mM) was tested in minimal media containing dextrose as a carbon source (Yeast Nitrogen Base, Dextrose; YNBD). The growth rate in the presence of each MMV compound was calculated as follows: (i) the first 10 OD readings were averaged and subtracted from all OD readings of the corresponding curve to set the baseline of the growth curve to zero, and (ii) the area under the curve (AUC) was then calculated as the sum of all OD readings. […] A relative growth value was calculated as follows: AUC(DRUG) - AUC(DMSO)/AUC(DMSO); where AUC(DMSO) represents growth measured in a DMSO control well that was on the same microtiter plate of the drug-treated culture.
# Saccharomyces cerevisiae [2] = assay: as §1, with “rich” for “minimal”, “Extract, Peptone,” for “Nitrogen Base,”, “YPD).” for “YNBD).”
# Saccharomyces cerevisiae [3] = assay: as §1, with “ethanol and glycerol” for “dextrose”, “as” for “as a”, “sources” for “source”, “Ethanol, Glycerol; YNBEG).” for “Dextrose; YNBD).”
SMILES,Relative Growth (Saccharomyces cerevisiae [1]),Relative Growth (Saccharomyces cerevisiae [2]),Relative Growth (Saccharomyces cerevisiae [3])
CCOC(=O)c1cnc2c(C)cccc2c1Nc1ccc(C(C)=O)cc1,-0.0028,-0.0046,-0.0453
COc1ccc(-c2nonc2NC(=O)c2cccc(C)c2)cc1OC,0.0614,-0.0571,-0.0764
Cc1ccc(-c2nc3ccccc3o2)cc1NCc1cc(Cc2ccccc2)ccc1O,0.0201,-0.0705,-0.1416
Cc1ccc(CN2CCC(C(=O)Nc3ccc(-c4cc5ccccc5[nH]4)cc3)CC2)o1,-0.0113,0.0612,-0.0247
Cc1cc(C)c2nc(N3CCC(C(=O)NCCCN4CCC(N5CCCCC5)CC4)CC3)sc2c1,-0.0696,-0.0409,-0.0414
Cc1ccc(Cn2c(N3CCC(C(=O)NCc4cccs4)CC3)nc3ccccc32)cc1,-0.0044,-0.105,-0.1621
CC(C)(C)c1ccc(C(=O)Nc2nc3ccccc3s2)cc1,-0.0029,-0.132,-0.4045
COc1ccccc1CNC(=O)C1c2ccccc2C(=O)N(CC(C)C)C1c1cccs1 (stereo unspecified),-0.0764,-0.1327,-0.0424
COc1ccc(C2N(C)c3ccccc3N2C)cc1,-0.0194,-0.0039,0.0867
COc1ccc(C(O)(CCC(C)C)C(CN2CCOCC2)c2ccc(Cl)cc2)cc1.Cl (stereo unspecified),-0.0398,-0.0809,-0.1228
CC(C)(C)CC(C)(C)NCC(O)COc1ccc2c(c1)CCC2.Cl (stereo unspecified),-0.0891,-0.08,-0.1886
CCOc1ccccc1CNC(=O)C1c2ccccc2C(=O)N(CC(C)C)C1c1cccs1 (stereo unspecified),0.0472,-0.0674,-0.1153
CCCCC(O)(c1ccc(Cl)cc1)C(CN1CCOCC1)c1ccc(Cl)cc1.Cl (stereo unspecified),-0.1088,0.0402,-0.0844
COc1ccc(OC)c(C2C3=C(CC(C)(C)CC3=O)N(c3ccc(Cl)c(Cl)c3)C3=C2C(=O)CC(C)(C)C3)c1,-0.0153,-0.0143,-0.1129
Cc1cccc(N2C(=O)C3C(C2=O)C2(c4ccccc4)C(=O)C3(c3ccccc3)C(c3ccc4c(c3)OCO4)=C2c2ccc3c(c2)OCO3)c1 (stereo unspecified),-0.0077,-0.0089,-0.1627
CCCc1c(C)nc2ccc(Br)cc2c1O,-0.0231,0.0054,-0.1859
COc1ccc(CCNC(=O)c2cc(S(=O)(=O)N3CC(C)CC(C)C3)ccc2Sc2ccc(F)cc2)cc1OC (stereo unspecified),-0.1001,-0.1625,-0.0984
Cc1ccc(F)cc1NC(=O)c1cc(Cl)ccc1Nc1ccccc1,-0.0972,-0.0355,0.1227
CCCc1c(C)nc2ccccc2c1O,-0.1078,-0.0347,-0.1372
CC1=C(CC(=O)c2cccc([N+](=O)[O-])c2)C(=O)c2ccccc2C1=O,-1.0109,-0.9318,-1.022
OC1CCCCC1C1(NC(=S)Nc2ccccc2)CCCCC1 (stereo unspecified),-0.1203,0.0255,0.0032
CCCCCCC(O)(c1ccc(F)cc1)C(CN1CCOCC1)c1ccccc1.Cl (stereo unspecified),-0.1565,-0.0019,-0.0435
CCOc1c(Br)cc(C2C(C(=O)OC)=CN(C)C=C2C(=O)OC)cc1OC,0.0663,-0.0344,-0.0572
COc1ccc(C(=O)C2CC2c2ccc(Cl)cc2)cc1 (stereo unspecified),-0.0877,-0.0484,-0.181
CCCCCn1c(=N)n(CC(O)COc2cccc(C)c2)c2ccccc21.Cl (stereo unspecified),-0.2633,0.0144,-0.7976
CCN(CC)CCCNc1nc(-c2ccc(Cl)cc2)nc2ccccc12,0.0809,-0.029,-0.0397
CN1c2ccccc2N(C)C1c1ccc2c(c1)OCO2,-0.0051,0.0103,0.1265
